Laboratory results published in paper PMC6520522, “In vitro and in vivo Metabolism of a Potent Inhibitor of Soluble Epoxide Hydrolase, 1-(1-Propionylpiperidin-4-yl)-3-(4-(trifluoromethoxy)phenyl)urea” (Frontiers in Pharmacology, 2019).
Values joined by “and” are separate entries in the source; they are usually repeats but may differ in a detail not shown here. Equal entries are not always repeated.

Experiments:
[1] = In vitro metabolism of TPPU in liver S9 fractions; format: in vitro ADME, human, monkey, dog, rat, mouse; settings: for formation of metabolite in liver S9 fractions: with NADPH regeneration system, rat, mouse, dog, monkey, human, 2 h; for formation of metabolite in liver S9 fractions in the absence of a NADPH generation system: without NADPH, liver S9 fractions (Figure S1: human)
Method: The in vitro study of TPPU metabolism was conducted following previous methods as described (Watanabe and Hammock, [2001]). Briefly, 1 μL of TPPU (1 mM in DMSO; [TPPU]final = 10 μM) was mixed with 94 μL of diluted liver S9 fractions (final, 0.05 mg protein/mL) from human, monkey, dog, rat, and mouse and incubations were conducted in a 10 mL glass vial. After 5 min preincubation at 37°C, the reaction was initiated by adding 5 μL of NADPH regeneration solution. The NADPH regeneration solution was prepared by mixing 50 μL of NADP^+ (100 mM), 50 μL of G6P (500 mM), 50 μL of G6PDH (100 Unit/mL), and 100 μL of sodium phosphate buffer. Incubation without NADPH regeneration solution was used as control. Reactions were kept for 2 h and terminated by addition of 100 μL of ice-cold methanol containing CUDA (200 nM) as an internal standard. The mixture was followed by vigorous mixing for 2 min and centrifuging at 10,000^*g for 10 min. Each supernatant was transferred to an HPLC vial and kept under 4°C until LC-MS analysis.
(§1) LC-MS/MS analysis was conducted on an Agilent SL 1200 series LC system (Agilent, Palo Alto, CA) connected to a 4,000 Qtrap mass spectrometer (Applied Biosystems Instrument Corporation, Foster City, CA) with Turbo V ion source. Liquid chromatography was performed on a Kinetex® C18 column (100 × 2.1 mm, 1.7 μm). Three μL solution was injected onto the column held at 45°C for analysis. Mobile phase A and B were water with 0.1% acetic acid and acetonitrile with 0.1% acetic acid, respectively. The LC flow rate was 300 μL/min.

[2] = Blood pharmacokinetics of TPPU and its metabolites after single oral dose in rats; format: in vivo; settings: for half-life: rat, po, 10 mg/kg, n = 4, read-out: T1/2 (half-life) (converted); for share of the total TPPU-related exposure in blood: single oral dose of TPPU, over 72 h
Method: (§2) Healthy male rats (Sprague Dawley, n = 4) were housed in temperature-controlled housing with ad libitum standard chow and drinking water. Each rat received TPPU (dissolved in 0.5 mL PEG400) at a dose of 10 mg/kg by oral gavage in order to generate significant amounts of metabolites while corresponding to previous efficacious concentration doses. Both blood and urine samples were collected. Blood samples (10 μL) at time points of 0 (before dosing), 0.25, 0.5, 1, 2, 4, 8, 12, 24, 48, and 72 h post dose were collected from the tail vein. Collected blood samples were transferred to Eppendorf tubes containing 90 μL of EDTA solution (0.1% EDTA and 0.1% acetic acid) and were immediately shaken to avoid blood coagulation. The urine and feces samples were passively collected at the time points of 8, 12, 24, 48, and 72 h post dose. TAPU (10 μL) of 1 μM in methanol was added in each blood and urine sample as an internal standard solution. The blood sample extraction was performed with 200 μL ethyl acetate by liquid-liquid extraction. The representative urine samples were subjected to protein precipitation prior to analysis of TPPU and Phase I metabolites. Briefly, urine (10 μL) was treated with 50 μL acetonitrile. After vortex mixing and centrifugation, the supernatant was collected. The feces samples (50–100 mg) were extracted using 600 μL extraction solution (MeOH: EA = 1:1). The mixtures were kept at −20°C overnight to give efficient extraction of TPPU and its metabolites. On day 2, after vortex mixing and centrifugation, the supernatant was collected. The remaining residue was extracted an additional time with 300 μL extraction solution, and the supernatant was combined after centrifugation. The collected supernatants were dried using a speed vacuum concentrator and reconstituted in 50 μL of 100 nM CUDA solution in methanol. In addition, urine (10 μL) was diluted with water (50 μL) and then subjected to analysis of glucuronide or sulfate conjugates.
as §1
(§3) The mass spectrometer was operated in both negative and positive modes. Three different scan types were employed to perform mass spectrometry analysis, including product ion scan, precursor ion scan (optimized parameters in Table S4) and MRM scan (optimized parameters in Table S5).

recombinant human sEH = biological target: T1, recombinant human sEH (Homo sapiens, UniProt P34913); assay: sEH inhibition potency, CMNPC fluorescent assay; format: biochemical; settings: for IC50: CMNPC fluorescent assay, recombinant human sEH 1 nM, 30°C, average of three replicates, read-out: HsEH IC50
T1 sequence (P34913 1-555): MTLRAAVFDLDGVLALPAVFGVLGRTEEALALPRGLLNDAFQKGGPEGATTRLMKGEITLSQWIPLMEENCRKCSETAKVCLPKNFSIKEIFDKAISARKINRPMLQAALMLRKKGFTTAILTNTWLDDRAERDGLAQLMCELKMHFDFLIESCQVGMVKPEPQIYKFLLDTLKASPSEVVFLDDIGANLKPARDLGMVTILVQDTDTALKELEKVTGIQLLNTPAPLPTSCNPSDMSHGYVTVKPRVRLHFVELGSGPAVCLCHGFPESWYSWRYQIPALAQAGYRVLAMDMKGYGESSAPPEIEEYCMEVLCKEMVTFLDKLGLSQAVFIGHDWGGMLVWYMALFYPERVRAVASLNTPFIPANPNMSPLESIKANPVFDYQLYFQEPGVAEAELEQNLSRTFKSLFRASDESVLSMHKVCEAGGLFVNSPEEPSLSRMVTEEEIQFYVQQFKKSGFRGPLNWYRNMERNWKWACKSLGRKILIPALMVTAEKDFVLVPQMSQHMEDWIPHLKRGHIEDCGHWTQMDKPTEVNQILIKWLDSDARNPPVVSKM
Method: Briefly, recombinant human sEH [1 nM in sodium phosphate buffer (0.1 M, pH = 7.4, 0.1 mg/mL BSA)] was incubated with each analyte (0.1 < [I]final < 10,000 nM) at 30°C for 5 min. Then, the reaction was started with the addition to CMNPC ([S]final = 5 μM). The reaction was monitored kinetically for 10 min at 30°C. The formation of the fluorescent product 6-methoxynaphthaldehyde (λexcitation = 330 nm, λemission = 465 nm, 30°C) was measured every 30 s. IC50 values were determined by regression of the remaining activity in function of the inhibitor concentrations. Assays were run in triplicate and IC50 values are the averages of three replicates.

[3] = Feces levels of TPPU and metabolites after single oral dose in rats; format: in vivo; settings: rat, single oral dose 10 mg/kg TPPU; for concentration at 8 h: 8h post dose; for concentration at 8 h / concentration at 12 h / concentration at 24 h / concentration at 48 h / concentration at 72 h: n = 3; for concentration at 12 h: 12h post dose; for concentration at 24 h: 24h post dose; for concentration at 48 h: 48h post dose; for concentration at 72 h: 72h post dose
[4] = Urine levels of TPPU and metabolites after single oral dose in rats; format: in vivo; settings: male, Sprague Dawley, rat, single oral dose 10 mg/kg TPPU, n = 3; for concentration at 8 h: 8h post dose; for concentration at 12 h: 12h post dose; for concentration at 24 h: 24h post dose; for concentration at 48 h: 48h post dose; for concentration at 72 h: 72h post dose
[5] = Metabolite identification/screening by LC-MS/MS (precursor ion scans, LC-MRM-MS) in rats; format: in vivo, rat; settings: for detection as TPPU metabolite: LC-MS/MS, in vivo in rats (blood, urine), Table 1 footnote: in vitro and in vivo; for share of TPPU metabolism, if formed: not detected by the LC-MRM-MS method; for concentration in rat urine, if formed (below method detection limit): rat urine after oral TPPU, LC-MRM-MS, no peak found, LOD
Method: as §2, with “[…].” for “Each rat received TPPU (dissolved in 0.5 mL PEG400) at a dose of 10 mg/kg by oral gavage in order to generate significant amounts of metabolites while corresponding to previous efficacious concentration doses.”
as §1, §3
. The other minor fragment ion at m/z 85 appeared at higher-energy collision induced dissociation (CID, 38 eV) and is derived from the C-O bond cleavage on the trifluoromethoxyphenyl group (Figure 1B). To support the structural identification of TPPU metabolites, six putative metabolites, M1–M4, α-keto amide metabolite and 4-(trifluoromethoxy)aniline were synthesized and analyzed by LC-MS/MS (Figure 2 and Table 2). In the negative ion mode, the fragment ion at m/z 176 was generated by all five synthetic putative metabolites (M1–M4 and α-keto amide metabolite). Apparently, this fragment ion (m/z 176) is a characteristic fragment that is generated by metabolites containing the 4-(trifluoromethoxy)aniline moiety. Therefore, precursor ion scan for m/z 176 can be used to screen for this kind of TPPU metabolite. The method limit of detection (LOD) is 2 ng/mL. In addition, the fragment ion at m/z 85 (from the trifluoro-methoxy) was also generated by these synthetic standards. […]. Therefore, precursor ion scan for m/z 85 can unveil a large number of possible TPPU metabolites, such as the ones-formed from amide hydrolysis and oxidation at aliphatic groups, aromatic ring, and nitrogen center. […]. […]

[6] = male, Sprague Dawley, whole blood, oral gavage 10 mg/kg

formation of metabolite in liver S9 fractions [1]	half-life [2, 6] [h]	share of the total TPPU-related exposure in blood ([2]; rat blood) [%]	IC50 (recombinant human sEH)	concentration at 8 h ([3]; male, Sprague Dawley, feces) [ng/mL]	concentration at 12 h ([3]; male, Sprague Dawley, feces) [ng/mL]	concentration at 24 h ([3]; male, Sprague Dawley, feces) [ng/mL]	concentration at 48 h ([3]; male, Sprague Dawley, feces) [ng/mL]	concentration at 72 h ([3]; male, Sprague Dawley, feces) [ng/mL]	concentration at 8 h [4] [ng/mL]	concentration at 12 h [4] [ng/mL]	concentration at 24 h [4] [ng/mL]	concentration at 48 h [4] [ng/mL]	concentration at 72 h [4] [ng/mL]	formation of metabolite in liver S9 fractions in the absence of a NADPH generation system [1]	Compound	detection as TPPU metabolite [5]	share of TPPU metabolism, if formed [5] [%]	concentration in rat urine, if formed (below method detection limit) [5] [ng/mL]	further results
not detected	17 ± 4.7	< 0.4	158 ± 10 nM	3	1.2	2.2	6.4	2.1	1	1.1	2.4	1.2	1.7	–	O=C(O)CC(=O)N1CCC(NC(=O)Nc2ccc(OC(F)(F)F)cc2)CC1 [Compound M4, 3-oxo-3-(4-(3-(4-(trifluoromethoxy)phenyl)ureido)piperidin-1-yl)propanoic acid]	–	–	–	Cmax ([2]; male, Sprague Dawley, whole blood, rat blood, oral gavage 10 mg/kg, n = 4, read-out: Cmax (maximum blood concentration)): 53 ± 28 nM; Cmax ([3]; male, Sprague Dawley, feces): 22000 ng/mL; time of Cmax in feces [3]: 24 h
found in all species tested	9.7 ± 0.8	< 0.4	16 ± 2 nM	4.3	6.8	6.7	1.9	43 ± 31	2.7	3.2	7.6	3	61 ± 60	failed to be detected	O=C(Nc1ccc(OC(F)(F)F)cc1)NC1CCN(C(=O)CCO)CC1 [Compound M2, 1-(1-(3-hydroxypropanoyl)piperidin-4-yl)-3-(4-(trifluoromethoxy)phenyl)urea]	–	–	–	–
–	–	–	–	–	–	–	–	–	–	–	–	–	–	–	CC(=O)C(=O)N1CCC(NC(=O)Nc2ccc(OC(F)(F)F)cc2)CC1 [α-Keto amide, 1-(1-(2-oxopropanoyl)piperidin-4-yl)-3-(4-(trifluoromethoxy)phenyl)urea]	not detectable	< 0.01	< 0.5	–
–	–	–	–	–	–	–	–	–	–	–	–	–	–	–	4-(trifluoromethoxy)aniline	not detectable	< 0.01	< 0.1	–
found in all species tested	14 ± 2.7	< 0.4	83.5 nM and 83 nM	3.6	8.3	1.1	3.4	1.7	2.5	2.9	1	1.5	44 ± 21	could still be produced	O=C(Nc1ccc(OC(F)(F)F)cc1)NC1CCNCC1 [Compound M3, 1-(piperidin-4-yl)-3-(4-(trifluoromethoxy)phenyl)urea]	–	–	–	fold lower potency than TPPU toward human sEH (recombinant human sEH; ratio of IC50 values, versus TPPU): 80 fold
